Patent publication US8404239B2, “Anti-Notch2 NRR antibodies” (Genentech, Inc., priority 2008, dated 2013)

Key:
Notch1 signaling = test: Co-culture Notch reporter assay, Notch1 signaling (NIH-3T3 Notch1 cells + ligand cells); type: cell-based; details: Jag1-induced; α-gD 2000 ng/ml; DAPT 5 μM
Procedure: (§1) NIH-3T3 cells stably transfected with Jag1 were used to induce Notch signaling in NIH-3T3 cells stably transfected with Notch1 (except for “−Jag1”, which used untransfected NIH-3T3 cells in place of the Jag1-expressing cells). […] NIH-3T3 cells stably transfected with Jag1 were used to induce Notch signaling in U87MG cells, which express high levels of Notch2. The assay was performed as described in (A). […] The assay was performed as in (A) except that the receptor-expressing cells were generated by transient transfection of plasmids expressing the indicated Notch1 receptors.
NIH-3T3 cells either stably transfected with Notch 1 or transiently transfected with plasmids containing other Notch receptors were co-transfected with a Notch-responsive TP-1 (12× CSL) Firefly luciferase reporter and a constitutively active Renilla Luciferase reporter (pRL-CMV, Promega) to control for transfection efficiency. […] After 20 hours, firefly and Renilla luciferase are measured with Dual Glo Luciferase Assay system (Promega). Eight replicates were analyzed for each condition by dividing the Firefly signal by the Renilla signal to control for transfection efficiency. The mean and standard deviation were calculated and values were normalized to calculated values for co-culture stimulated with NIH-3T3 cells without ligand transfected.

SK23 melanoma cells = test: Cell Titer Glo viability of melanoma cell line SK23; type: cell-based, human; details: six days, antibodies 20 mg/ml, DAPT 5 μM, ± Jagged-1
Procedure: (§2) Human melanoma cell lines SK23 and LOX-IMVI were plated in medium containing 2% FBS at low density (4000 cells/well for SK23, 2500 cells/well for LOX-IMVI) in 96 well plates that were coated without (−jag-1) or with Jagged-1 ligand (+jag-1) (R&D Systems, Minneapolis, Minn.). […] An equal volume of DMSO served as the vehicle control, whereas an equal concentration of anti-gD HuB6 phage antibody served as the isotype control antibody. Cell Titer Glo assays (Promega, Madison, Wis.) were performed six days after plating. […] In FIGS. 25A and 25B, cell viability (y-axis) is expressed relative to the values from the DMSO vehicle, −jag-1 control wells.

LOX-IMVI melanoma cells = test: Cell Titer Glo viability of melanoma cell line LOX-IMVI; type: cell-based, human; details: six days, antibodies 20 mg/ml, DAPT 5 μM, ± Jagged-1
Procedure: as §2

Notch2 signaling = test: Co-culture Notch reporter assay, Notch2 signaling (U87MG cells + Jag1 cells); type: cell-based; details: Jag1-induced; DAPT 5 μM
Procedure: as §1
Co-culture assay in U87MG cells, as described in FIG. 10B.
NIH-3T3 cells either stably transfected with Notch 1 or transiently transfected with plasmids containing other Notch receptors were co-transfected with a Notch-responsive TP-1 (12× CSL) Firefly luciferase reporter and a constitutively active Renilla Luciferase reporter (pRL-CMV, Promega) to control for transfection efficiency. Cells are allowed to recover from the transfection from 6 hours to overnight. Treatments of antibodies and NIH-3T3 cells stably transfected with ligand are used to stimulate the receptor cells. After 20 hours, firefly and Renilla luciferase are measured with Dual Glo Luciferase Assay system (Promega). Eight replicates were analyzed for each condition by dividing the Firefly signal by the Renilla signal to control for transfection efficiency. The mean and standard deviation were calculated and values were normalized to calculated values for co-culture stimulated with NIH-3T3 cells without ligand transfected.

HUVECs = test: HUVEC fibrin gel bead endothelial cell sprouting assay; type: cell-based, human; details: HUVEC co-cultured with skin fibroblasts; 1 μM DBZ, 5 μg/ml antibodies
Procedure: (A) In vitro endothelial cell sprouting assay. HUVECs were coated on Cytodex beads and co-cultured with skin fibroblasts. Cultures were either mock treated (control) or treated with 1 μM of DBZ, 5 μg/ml of α-NRR1 or 5 μg/ml of α-D114. Bar=100 μm. (B) Sprout length measurements from the cultures in (A). (C) Mouse neonate retinal assay for endothelial cell sprouting and angiogenesis. Mouse neonates were injected at P1 and P3 with the indicated antibodies, and retinas were prepared at P5 to visualize perfusion of isolectin or the Ki67 marker for proliferation. Panels I and II, Bar=1 mm. Panels III-VI represent enlargements of part of panels I and II, bar=0.2 mm.
HUVEC cells were grown on fibrin gel beads as previously described (Nakatsu et al., 2003). Cytodex 3 beads (Amersham Pharmacia Biotech) were coated with 350-400 HUVECs per bead in 2 ml EGM-2 medium (Clonetics). About 200 HUVEC coated beads were imbedded in fibrin clot in one well of 12-well tissue culture plate. […] Medium was changed every two days. After seven to nine days, fibrin gels were then fixed with 4% paraformaldehyde and endothelial cells were stained with anti-CD31 (R&D Systems AF806) using a FITC-conjugated secondary antibody for detection.

[1] = system: intestinal cell differentiation; test: Histology and immunohistochemistry of mouse intestine tissue; type: in vivo
Text: (A) Total body weight change (mean+/−standard deviation) vs. time. […] Arrows mark the days of dosing. (B) Immunohistochemical analyses of small intestines. […] In each row as indicated, staining is shown for haemotoxylin and eosin (H & E), Alcian Blue for mucin and to mark secretory goblet cells, lysozyme to mark Paneth cells, Ki-67 for proliferation and Hes1 as a Notch downstream target. See FIGS. 19 and 20 for analyses of the large intestine at day 7 and of the small intestine at day 2, respectively. Bar=40 μm. (C) Comparison of Notch1- versus Notch2-specific inhibition on small intestinal cell differentiation. Small intestines from the study described in (A) were prepared for Alcian Blue and Ki-67 one day after the final dosing with α-gD, α-NRR1 or α-NRR2, as indicated. Bar=50 μm.
Formalin-fixed and paraffin-embedded mouse small intestine tissues were sectioned at 3 micron thickness. Histochemical identification of intestinal cell types was performed with Alcian blue as recommended by the manufacturer (PolyScientific). For anti-Ki67 staining, sections were pretreated with Target Retrieval Solution (S1700, DAKO), and incubated with rabbit anti-Ki67 (1:200, clone SP6, Neomarkers). Secondary goat anti-rabbit at 7.5 μg/ml (Vector labs) was detected with the Vectastain ABC Elite Kit (Vector labs). Ki67 stained sections were counterstained with Mayer's haemotoxylin. For anti-lysozyme staining, sections were processed on the Discovery XT platform (Ventana Medical Systems, Inc.) using CC1m epitope recovery conditions, OmniMap-rabbit detection and Ventana haemotoxylin II/with bluing counterstain. For HES-1 staining, anti-rat HES-1 (clone NM1, MBL, International) was followed by TSA-HRP.
The effect of inhibiting both Notch1 and Notch2 on intestinal cell fate determination was also investigated. […] The intestines were harvested and stained with H&E to reveal the crypt morphology. […] Further experimentation confirmed this observation.

Row | Structure (SMILES) | effect on Notch1 reporter signaling (Notch1 signaling) | cell viability (SK23 melanoma cells) | cell viability (LOX-IMVI melanoma cells) | effect on Notch2 reporter signaling (Notch2 signaling) | endothelial cell sprouts (number and length) (HUVECs) | Notch signaling (Hes1 staining), large intestine ([1]; day 7) | goblet cell numbers (Alcian Blue and H&E), large intestine ([1]; day 7) | progenitor cell proliferation (Ki-67), large intestine ([1]; day 7) | Hes1 expression, small intestine ([1]; day 7, DBZ 30 μmol/kg) | Paneth cells (lysozyme staining), small intestine ([1]; day 7, DBZ 30 μmol/kg) | goblet cell population (Alcian Blue), small intestine ([1]; day 7, DBZ 30 μmol/kg) | progenitor cell proliferation (Ki-67), small intestine ([1]; day 7, DBZ 30 μmol/kg) | intestinal cell fate changes at early time point ([1]; small intestine, day 2)
1 | C[C@H](NC(=O)Cc1cc(F)cc(F)c1)C(=O)N[C@H](C(=O)OC(C)(C)C)c1ccccc1 [DAPT, reference compound] | reduced to background | decrease in viability | decrease in viability | reduced to background | – | – | – | – | – | – | – | – | –
2 | C[C@H](NC(=O)Cc1cc(F)cc(F)c1)C(=O)N[C@@H]1C(=O)N(C)c2ccccc2-c2ccccc21 [DBZ] | – | – | – | – | increased both the number and length | significantly reduced Notch signaling | increased goblet cell numbers | blocked progenitor cell proliferation | inhibition of Hes1 expression | increased the numbers and/or activity of Paneth cells | dramatic expansion | decrease in progenitor cell proliferation | only weakly detectable
